Results from publication PMC8965563, “PaP1, a Broad-Spectrum Lysin-Derived Cationic Peptide to Treat Polymicrobial Skin Infections” (Frontiers in Microbiology, 2022).
Read-outs that look alike come from different tables or passages of the source.

Columns and labels:
[1] = system: S. aureus strain NRS384 (MRSA); experiment: Murine burn wound infection model, prophylactic; format: in vivo, Staphylococcus aureus; settings: monotherapy: 1% (wt/vol) PaP1, or 0.02% or 0.2% (wt/vol) mupirocin, topical in diH2O, 1 h before and 2 h after infection with 10^6 CFU; female CD1 mice, third-degree burns; counts 3 h post-infection; control ~10^6 CFU/g tissue; geometric mean
[2] = system: P. aeruginosa strain PAO1; settings: 20 mM Tris–HCl, pH 7.2, 1 h, 37°C, log-phase bacteria ~10^5–10^6 CFU/ml, limit of detection 10 CFU/ml, triplicate experiments
[3] = peptide 10 μg/ml, serial dilution and plating

Compound | reduction of MRSA viability vs untreated control [1] | reduction of bacterial viability (log10-fold kill) [2, 3] | reduction of bacterial viability (log10-fold kill) ([2]; peptide 5 μg/ml, plating)
C/C(=C\C(=O)OCCCCCCCCC(=O)O)C[C@@H]1OC[C@H](C[C@@H]2O[C@H]2[C@@H](C)[C@H](C)O)[C@@H](O)[C@H]1O [mupirocin] | 1.1–1.2 log10-fold | – | –
NAGDYAGAAEQFLRWNKAGGKVLPGLVRRRA [PaP1-2] | – | 1.2 log10-fold | –
NAGDYAGAAEQFLRWNKAGGKVLPGLVRRRASERELFLGAA [PaP1-1] | – | ineffective | ineffective
NAGDYAGAAEQFLRWNKAGGKVLPGLVRRRK [PaP1-3] | – | below the limit of detection | 2.4 log10-fold
QYCANDRVGNLWVEAQEGRKPLRSSAKFKGGAQRRSGLA [PaP1-6] | – | retains bactericidal activity | –
